Experimental data reported in PMC12675387, “Receptor interaction profiles of 4-alkoxy-2,6-dimethoxyphenethylamines (Ψ derivatives) and related amphetamines” (Frontiers in Pharmacology, 2025).

Tests used:
[1] = biological target: hD2 receptor (Homo sapiens, UniProt P14416); assay: Radioligand binding, dopaminergic D2 receptor ([3H]spiperone)
[2] = biological target: T1, h5-HT2C receptor (Homo sapiens, UniProt P28335); assay: Radioligand binding, 5-HT2C receptor ([3H]mesulergine)
T1 sequence (P28335 33-458): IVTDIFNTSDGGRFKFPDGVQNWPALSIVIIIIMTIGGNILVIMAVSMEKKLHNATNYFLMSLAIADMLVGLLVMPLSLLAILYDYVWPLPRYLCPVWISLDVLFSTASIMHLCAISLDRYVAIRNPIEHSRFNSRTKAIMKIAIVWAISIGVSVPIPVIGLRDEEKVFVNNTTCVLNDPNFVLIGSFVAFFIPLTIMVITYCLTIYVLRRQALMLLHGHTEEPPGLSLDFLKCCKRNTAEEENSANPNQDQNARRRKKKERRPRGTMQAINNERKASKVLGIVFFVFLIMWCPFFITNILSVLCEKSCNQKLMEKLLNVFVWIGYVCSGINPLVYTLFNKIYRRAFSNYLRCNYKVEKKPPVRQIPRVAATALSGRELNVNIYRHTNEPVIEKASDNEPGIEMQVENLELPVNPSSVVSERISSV

[3] = biological target: hDAT (Homo sapiens, UniProt Q01959); assay: Radioligand binding, DAT ([3H]WIN35,428); details: hDAT Ki ± SD, [3H]WIN35,428
Chain of hDAT (Q01959 whole entry): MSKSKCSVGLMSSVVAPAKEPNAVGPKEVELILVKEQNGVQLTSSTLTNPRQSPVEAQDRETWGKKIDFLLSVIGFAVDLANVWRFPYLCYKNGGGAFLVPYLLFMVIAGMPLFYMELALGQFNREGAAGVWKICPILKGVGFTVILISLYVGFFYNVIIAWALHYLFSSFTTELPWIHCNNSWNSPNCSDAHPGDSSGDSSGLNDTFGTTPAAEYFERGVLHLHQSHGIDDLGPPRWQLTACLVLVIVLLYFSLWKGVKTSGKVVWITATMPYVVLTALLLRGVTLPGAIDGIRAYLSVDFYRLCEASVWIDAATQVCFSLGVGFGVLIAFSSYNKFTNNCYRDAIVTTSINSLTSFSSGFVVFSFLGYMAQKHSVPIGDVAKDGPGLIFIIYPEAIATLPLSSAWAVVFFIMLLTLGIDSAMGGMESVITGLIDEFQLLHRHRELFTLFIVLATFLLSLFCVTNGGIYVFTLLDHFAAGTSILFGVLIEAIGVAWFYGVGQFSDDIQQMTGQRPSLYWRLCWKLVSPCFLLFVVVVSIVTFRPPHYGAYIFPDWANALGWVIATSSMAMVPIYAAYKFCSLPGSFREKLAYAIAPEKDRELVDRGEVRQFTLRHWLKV

[4] = initial doses, anecdotal; ref Trachsel et al., 2013; cited from earlier work
[5] = biological target: hNET (Homo sapiens, UniProt P23975); assay: Radioligand binding, NET (N-methyl-[3H]nisoxetine)
Chain of hNET (P23975 whole entry): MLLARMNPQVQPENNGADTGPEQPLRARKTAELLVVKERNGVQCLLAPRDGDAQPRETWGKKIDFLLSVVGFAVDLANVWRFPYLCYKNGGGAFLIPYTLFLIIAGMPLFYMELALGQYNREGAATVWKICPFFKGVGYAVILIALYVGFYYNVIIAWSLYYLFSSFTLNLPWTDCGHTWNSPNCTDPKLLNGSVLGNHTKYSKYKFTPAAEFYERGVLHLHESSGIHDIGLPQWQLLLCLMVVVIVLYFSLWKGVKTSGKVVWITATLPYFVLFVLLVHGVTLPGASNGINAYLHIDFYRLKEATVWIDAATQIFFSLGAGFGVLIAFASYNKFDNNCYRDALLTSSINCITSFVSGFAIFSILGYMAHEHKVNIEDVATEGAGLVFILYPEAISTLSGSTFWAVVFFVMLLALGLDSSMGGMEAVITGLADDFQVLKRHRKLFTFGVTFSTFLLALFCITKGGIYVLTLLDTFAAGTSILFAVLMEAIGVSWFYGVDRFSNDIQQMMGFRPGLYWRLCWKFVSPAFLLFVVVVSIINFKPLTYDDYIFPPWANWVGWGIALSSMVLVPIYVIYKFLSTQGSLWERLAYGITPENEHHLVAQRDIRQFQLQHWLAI

[6] = biological target: T2, human TAAR1 (Homo sapiens, UniProt Q96RJ0); assay: Activation potency at human TAAR1 (cAMP assay, HEK 293 cells); assay type: cell-based
T2 construct: expressed in transfected cells; host or cells: HEK 293 cells
T2 sequence (Q96RJ0 1-339): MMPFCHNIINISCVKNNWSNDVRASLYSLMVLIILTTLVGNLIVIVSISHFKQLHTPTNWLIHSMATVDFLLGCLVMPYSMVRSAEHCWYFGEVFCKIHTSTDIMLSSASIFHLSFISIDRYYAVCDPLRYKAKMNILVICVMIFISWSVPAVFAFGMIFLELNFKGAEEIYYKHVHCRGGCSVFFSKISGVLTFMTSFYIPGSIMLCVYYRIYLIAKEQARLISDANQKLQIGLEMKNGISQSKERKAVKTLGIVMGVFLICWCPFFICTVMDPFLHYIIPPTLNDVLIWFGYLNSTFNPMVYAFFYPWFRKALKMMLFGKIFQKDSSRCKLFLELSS
Description: The activation potency at the human TAAR1 was determined as previously described by [Luethi et al. (2018)]. In summary, recombinant HEK 293 cells stably transfected with the human TAAR1 were grown in culture flasks composed of 30 mL high glucose DMEM with 10% heat inactivated fetal calf serum, […] Geneticin, and […] hygromycin B at 37 °C and 5% CO2. The cells were grown to 80%–90% confluency before collection. The cells were washed with phosphate-buffer saline (PBS) and 5 mL of trypsin/EDTA solution were added for 5 min at 37 °C to detach the cells from the flask. Then, 45 mL of fresh medium were added to the flask and the total mixture was put into a falcon tube, which was centrifuged for 3 min at 900 rpm at room temperature. The supernatant was aspirated, and the remaining cell pellet was resuspended in fresh medium to a concentration of 5 × 10^5 cells per mL. Next, 100 μL of the cell mixture was transferred to a 96 well plate (BIOCOAT 6640, Becton Dickinson, Allschwil, Switzerland) and incubated for 20 h at 37 °C. For the cAMP assay, the medium was removed and replaced with 50 μL PBS lacking calcium or magnesium ions. The PBS was extracted via snap inversion and the plate was gently tapped on tissue to remove any remaining PBS solution. The plate was then incubated with Krebs-Ringer Bicarbonate buffer (90 μL/well; KRB, Sigma-Aldrich) containing 1 mM IBMX for 1 h at 37 °C and 5% CO2/95% air. Test compounds were investigated in duplicate at various concentrations ranging from 300 pM to 30 μM. A cAMP standard curve (concentration range of 0.13 nM–10 μM) was included on each 96 well plate. Additionally, a reference plate was used containing RO5256390, β-phenylethylamine and p-tyramine. Cells were incubated with either 30 μL of compound solution, β-phenylethylamine (which represented the maximal response) or a basal control in PBS (supplemented with 1 mM IBMX) for 40 min at 37 °C. Thereafter, the cells were incubated with 50 μL of 3× detection mix solution (consisting of Ru-cAMP Alexa700 anti-cAMP antibody and lysis buffer) for 40 min at 37 °C, while covered with black lids and under forceful shaking. The fluorescence (456 nm excitation wavelength; 630 and 700 nm emission wavelengths) was measured using a NanoScan reader (Innovate Optische Messtechnik, Berlin, Germany) and the FRET signal was calculated using the following equation: FRET (700 nm) – P × FRET (630 nm). P was equal to Ru (700 nm)/Ru (630 nm).

[7] = biological target: h5-HT2A receptor (Homo sapiens, UniProt P28223); assay: Radioligand binding, 5-HT2A receptor ([3H]ketanserin)
Chain of h5-HT2A receptor (P28223 whole entry): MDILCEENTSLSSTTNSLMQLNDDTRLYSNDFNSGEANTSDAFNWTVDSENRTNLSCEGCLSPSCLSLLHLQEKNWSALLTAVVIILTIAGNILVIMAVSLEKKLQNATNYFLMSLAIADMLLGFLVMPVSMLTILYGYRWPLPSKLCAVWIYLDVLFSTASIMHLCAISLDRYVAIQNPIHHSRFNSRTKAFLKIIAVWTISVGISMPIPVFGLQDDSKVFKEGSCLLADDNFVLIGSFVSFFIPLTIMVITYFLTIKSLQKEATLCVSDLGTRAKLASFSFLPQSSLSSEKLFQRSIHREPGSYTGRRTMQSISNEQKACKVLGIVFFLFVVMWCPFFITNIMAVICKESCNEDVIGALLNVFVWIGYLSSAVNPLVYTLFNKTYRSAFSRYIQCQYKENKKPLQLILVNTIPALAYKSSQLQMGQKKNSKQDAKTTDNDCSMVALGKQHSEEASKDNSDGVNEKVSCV

Chain of hD2 receptor (P14416 whole entry): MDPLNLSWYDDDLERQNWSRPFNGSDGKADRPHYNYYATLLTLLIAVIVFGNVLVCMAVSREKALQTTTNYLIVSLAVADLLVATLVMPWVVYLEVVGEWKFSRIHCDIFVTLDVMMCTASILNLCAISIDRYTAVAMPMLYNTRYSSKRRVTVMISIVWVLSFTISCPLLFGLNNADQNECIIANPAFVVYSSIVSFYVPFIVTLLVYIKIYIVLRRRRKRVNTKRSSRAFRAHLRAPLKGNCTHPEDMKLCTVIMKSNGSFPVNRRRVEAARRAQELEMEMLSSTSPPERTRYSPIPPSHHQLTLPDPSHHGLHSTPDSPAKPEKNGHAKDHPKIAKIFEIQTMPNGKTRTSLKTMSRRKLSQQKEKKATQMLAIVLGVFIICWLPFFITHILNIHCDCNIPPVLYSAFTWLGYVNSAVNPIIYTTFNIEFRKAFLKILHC

For `COc1cc(OC(F)F)cc(OC)c1CCN` [Ψ-2C-O-35, 4-(2,2-difluoromethoxy)-2,6-dimethoxyphenethylamine], the Ki [1] was greater than 6 µM, the Ki [2] was 0.51 ± 0.14 µM and the Ki [3] was greater than 8.5 µM. For the same molecule, the “dose with some psychoactivity in humans” value [4] was 17 mg, the Ki [5] was greater than 8.8 µM and the EC50 [6] was greater than 30 µM. For the same molecule, the Ki [7] was 0.072 ± 0.018 µM, the “fold increase in 5-HT2A affinity over the 4-methoxy analog” value ([7]; pairs Ψ-2C-O-1/Ψ-2C-O-35 and TMA-6/Ψ-DODFMO) was 3–4 fold and the “Selectivity (binding ratio) 5-HT2A/5-HT2C” value ([7]; preference for 5-HT2A (Ki 5-HT2C divided by Ki 5-HT2A)) was 7.1.
